Test results taken from the supplement of paper PMC10307832.

How the values were obtained:
Experiment in all cases: relative viability (nuclei count vs DMSO), 5 days (fraction); higher = more cells survive
Bortezomib + Trametinib = compound: CC(C)C[C@H](NC(=O)[C@H](Cc1ccccc1)NC(=O)c1cnccn1)B(O)O [Bortezomib] + CC(=O)Nc1cccc(-n2c(=O)n(C3CC3)c(=O)c3c(Nc4ccc(I)cc4F)n(C)c(=O)c(C)c32)c1 [Trametinib] (partner 0.02 µM)
Procedure, shortened: (§1)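 One day after seeding in 1536-well plates, lung cancer cell lines were dosed by pin tool. Dosing was either single-drug or a fixed anchor-drug dose plus five library-drug doses (not always all listed) in √10 steps. After 5 days, nuclei were stained in one fix-and-stain step and counted on 4× images, and relative viability is the nuclei count of treated wells over that of vehicle wells, given as the median of duplicate plates.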

[1] = compound: CC1=CC(=NN1)NC2=CC(=NC(=N2)/C=C/C3=CC=CC=C3)N4CCN(CC4)C + Cc1nc(NC(=O)N2CCC[C@H]2C(N)=O)sc1-c1ccnc(C(C)(C)C(F)(F)F)c1 [Alpelisib] (partner 2 µM)
Procedure, shortened: as §1

Obatoclax + Navitoclax = compound: COC1=CC(c2cc3ccccc3[nH]2)=N/C1=C\c1[nH]c(C)cc1C [Obatoclax] + CC1(C)CCC(c2ccc(Cl)cc2)=C(CN2CCN(c3ccc(C(=O)NS(=O)(=O)c4ccc(N[C@H](CCN5CCOCC5)CSc5ccccc5)c(S(=O)(=O)C(F)(F)F)c4)cc3)CC2)C1 [Navitoclax] (partner 0.5 µM)
Procedure, shortened: as §1

[2] = compound: CC1=CC(=NN1)NC2=CC(=NC(=N2)/C=C/C3=CC=CC=C3)N4CCN(CC4)C + CC1(C)CCC(c2ccc(Cl)cc2)=C(CN2CCN(c3ccc(C(=O)NS(=O)(=O)c4ccc(N[C@H](CCN5CCOCC5)CSc5ccccc5)c(S(=O)(=O)C(F)(F)F)c4)cc3)CC2)C1 [Navitoclax] (partner 0.5 µM)
Procedure, shortened: as §1

Cell Line	relative viability (Bortezomib + Trametinib; first compound 0.0002 µM)	relative viability (Bortezomib + Trametinib; first compound 0.000632 µM)	relative viability (Bortezomib + Trametinib; first compound 0.002 µM)	relative viability (Bortezomib + Trametinib; first compound 0.006325 µM)	relative viability (Bortezomib + Trametinib; first compound 0.02 µM)	relative viability ([1]; first compound 0.08 µM)	relative viability ([1]; first compound 0.253 µM)	relative viability ([1]; first compound 0.8 µM)	relative viability ([1]; first compound 2.53 µM)	relative viability ([1]; first compound 8 µM)	relative viability (Obatoclax + Navitoclax; first compound 0.01 µM)	relative viability (Obatoclax + Navitoclax; first compound 0.03162 µM)	relative viability (Obatoclax + Navitoclax; first compound 0.1 µM)	relative viability (Obatoclax + Navitoclax; first compound 0.3162 µM)	relative viability (Obatoclax + Navitoclax; first compound 1 µM)	relative viability ([2]; first compound 0.08 µM)	relative viability ([2]; first compound 0.253 µM)	relative viability ([2]; first compound 0.8 µM)	relative viability ([2]; first compound 2.53 µM)	relative viability ([2]; first compound 8 µM)
EPLC-272H	0.324	0.279	0.233	0.073	0.0585	0.901	1.07	0.79	0.513	0.244	1.1	1.16	1.38	1.03	1.26	1.07	1.32	0.987	0.598	0.339
LK-2	0.68	0.597	0.332	0.156	0.196	1.1	0.668	0.966	0.605	0.211	0.885	0.822	0.957	0.864	1.02	0.821	1.03	0.711	0.247	0.133
UMC-11	0.731	0.845	0.574	0.296	0.132	0.948	0.963	0.404	0.13	0.103	0.315	0.311	0.316	0.299	0.111	0.317	0.312	0.177	0.116	0.0909
HCC-827	0.515	0.555	0.417	0.218	0.141	0.934	0.984	1.02	0.874	0.475	0.997	0.99	1.06	0.988	1	0.972	1.04	0.979	0.937	0.705
NCI-H1993	0.51	0.507	0.527	0.452	0.375	0.63	–	0.581	0.61	0.493	1.04	0.816	1.03	0.867	0.982	0.94	–	0.78	0.576	0.489
NCI-H647	0.471	0.404	0.542	0.0211	0.0513	0.927	1.11	0.782	0.05	0.0332	1.11	0.974	0.633	0.477	0.229	1.05	1.38	1.07	0.0912	0.0329
NCI-H460	0.126	0.157	0.202	0.0768	0.0189	0.388	0.581	0.183	0.0086	0.0052	1.08	1.2	1.12	0.034	0.0115	1.07	1.58	0.952	0.0095	0.0091
EMC-BAC-2	1.02	1.01	0.803	0.341	0.307	0.748	0.717	0.662	0.521	0.154	1.15	1.18	1.13	1.19	1.22	1.1	1.11	1.07	0.719	0.266
NCI-H23	0.343	–	0.286	0.193	0.114	0.55	0.859	0.704	0.265	0.12	0.907	0.733	0.847	0.537	0.813	0.79	0.909	0.867	0.364	0.15
A-427	0.657	0.842	0.696	0.216	0.161	1.08	1.15	1.07	0.716	0.133	0.864	0.917	0.95	0.986	0.959	1.04	1.02	0.991	0.627	0.164
NCI-H322M	0.547	0.455	0.47	0.486	0.411	0.716	0.792	0.757	0.436	0.204	1.16	1.26	1.29	1.14	1.39	1.18	1.41	1.09	0.802	0.318
COR-L23	0.478	0.586	0.704	0.0593	0.06	0.751	0.722	0.57	0.178	0.0573	1.08	1.06	0.883	0.257	0.2	1.02	1.07	0.884	0.302	0.0578
SK-MES-1	0.506	0.546	0.533	0.215	0.158	0.882	0.853	0.958	0.623	0.131	1.28	1.16	1.22	1.03	0.64	1.11	1.21	1.15	0.479	0.116
